# According to patent US10653676B2 (Dana-Farber Cancer Institute, Inc., priority 2010, dated 2020):
# Tests used:
# USP1/UAF1 complex [1] = target: T1, USP1/UAF1 complex (Homo sapiens, UniProt O94782, G670A/G671A); assay: high throughput screening for inhibitors of USP1 deubiquitinating activity; type: biochemical; conditions: library of approximately 150,000 compounds
# T1 construct: This modified full length USP1 clone was PCR amplified and subcloned into pFastBac-HT vectors; His tag (N); made in house; host or cells: Sf9 insect cells (baculovirus)
# Procedure: The ubiquitin-Rho based enzyme assay for high throughput screening was established in a 384-well format. The reaction buffer containing and USP1/UAF1 complex were added in 384 well plates using automated liquid handling robot-Bio-Tek Microfill (Bio-Tek Instrments Inc., VT), followed by addition of the compounds (in DMSO) from the compound library plates to wells using a pin transfer robotic system at a final concentration of 10 μM. The reaction was composed of 0.1 nM purified USP1/UAF complex, 75 nM ubiquitin Rhodamine (Ub-Rho, Boston Biochem, U-600) and 2 μM ubiquitin. Fluorescence was monitored in a FluoStar Galaxy Fluorometer (BMG Labtech). Fluorescence emission at 535 nm (λex=485 nm) was measured in an automated plate reader Envision 2 (Perkin Elmer, Mass.).
# (§1) In order to develop a highly sensitive assay with easy readout for high throughput detection, the fluorogenic compound Ubiquitin-7-amido-4-methylcoumarin (AMC-Ub, Boston Biochem) was used as a substrate for USP1/UAF1 enzyme complex. USP1 catalyzes the cleavage of AMC-Ub, releasing free AMC moiety, which leads to increase in fluorescence emission at 460 nm (λex=380 nm). Dang et al. (1998) Biochemistry 37:1868-79. Catalytic activity towards AMC-Ub increases 35 fold compared to USP1 enzyme alone. Initial enzyme assay development was performed in 96-well plates with 100 μl reaction volume containing 20 mM HEPES-KOH, 0.1 mg/ml ovalbumin (Sigma), 0.5 mM EDTA, and 10 mM DTT. 2.5 nM USP1/UAF1 enzyme complex was mixed with the reaction buffer, incubated at 37° C. for 10 minutes and then 0.3 μM AMC-Ub was added. Fluorescence was measured using a Fluostar Galaxy Fluorometer (BMG Labtech Inc.).
# Once the preliminary enzyme assay was established in 96-well format, it was optimized for 384 wells for high throughput screening (HTS) of inhibitors. The major points to be considered were the volume of the reaction and amount of AMC-Ub substrate to be used in the assay. Since the price of AMC-Ub is very high, in order to make it a feasible assay for HTS, lowest workable amount of the AMC conjugate was used. Reaction volume was minimized to 30 μl in order to meet the recommendation of ICCB-L screening facility (Harvard). In the preliminary optimization experiment, a series of pilot experiments were performed with varying AMC-Ub concentrations (0.025 μM to 0.2 μM), along with the varying concentration of USP1/UAF1 complex (0.2 nM to 3.2 nM). […] After incubating the enzyme and buffer at 37° C. for 10 minutes, AMC-Ub was added and fluorescence emission at 460 nm (λex=380 nm) was measured in an automated plate reader Envision 2 (Perkin Elmer). Fluorescence reading for all time points up to one hour was noted and the data for different AMC-Ub concentration range was plotted with each USP1/UAF1 enzyme complex concentration. […]
# USP1/UAF1 complex [2] = target: T1, USP1/UAF1 complex; assay: ubiquitin-AMC in vitro deubiquitination enzyme assay; type: biochemical; conditions: 4 hour preincubation; AMC-Ub in vitro enzyme assay; read-out: IC50
# Procedure: Purified USP1/UAF1 complex was incubated with 1 μM C527 or DMSO for indicated time, followed by the addition of Ub-AMC at 0.5 μM final concentration. The fluorescence at […] was measured to indicate the enzymatic activity of USP1. […] 5A.
# The in vitro enzymatic assays were performed using purified proteins from Sf9 cells as described previously (Cohn et al.). The assays using ubiquitin-AMC (Ub-7-amido-4-methylcoumarin; Boston Biochem) as substrate was carried out in a reaction buffer containing 20 mM HEPES-KOH (pH 7.8), 20 mM NaCl, 0.1 mg/ml ovalbumin, 0.5 mM EDTA and 10 mM dithiothreitol. The fluorescence was measured by FluoStar Galaxy Fluorometer (BMG Labtech). For the Ub-vinylsulfone (VS) assay, the proteins were incubated with Ub-VS at 0.5 μM final concentration for 1 h at 30° C., followed by the immunoblotting analysis.
# as §1, with “Catalytic activity towards AMC-Ub increases 35 fold compared to USP1 enzyme alone.” left out
# Hits from the initial screening were analyzed further in secondary screening. In this step, the compounds were re-tested for inhibition using the AMC-Ub in vitro enzyme assay. After reconfirming inhibition, different concentration range of the inhibitors were tested to show dose dependency of inhibition and IC50 calculation.
# USP1/UAF1 complex [3] = target: T1, USP1/UAF1 complex; conditions: bioactive libraries; in the range of Al-Ub-treated positive control; previously shown, US 2008/0167229 A1; cited from earlier work
# HeLa cells = assay: DNA damage response markers by immunoblotting; type: cell-based, human; conditions: 24 hrs, MMC 1 μM positive control, FIG. 9A
# Procedure: FIG. 9 is a composite figure showing that C527 causes DNA damage and inhibits the proliferation of tumor cells. […] HeLa cells were treated with C527 at the indicated concentrations for 24 hrs, and cells were subjected to immunoblotting. Mitomycin C (MMC, 1 μM) was used as a positive control. […] HeLa cells were seeded in a 6-well plate and treated with C527 at the indicated concentrations. Cell proliferation was evaluated using a clonogenic assay.
# Impaired HR integrity may lead to genotoxic effect. Genotoxic agents are known to directly activate DNA damage response pathways, resulting in FANCD2 monoubiquitination and CHK1 phosphorylation (FIG. 9A).
# [4] = system: HR pathway-proficient breast tumor line; conditions: preliminary xenograft studies, data not shown
# Excerpt: Preliminary breast cancer xenograft studies with one HR pathway-proficient breast tumor line have been conducted.
# [5] = system: endogenous DUB enzyme complexes; assay: HA-Ub-VS labelling of other endogenous DUBs in HeLa cell extracts; type: biochemical, human; conditions: HeLa cell extracts pretreated 4 h (Ub-Ald 5 μM), then Ub-VS 40 min at 30° C.; FIG. 7
# Procedure: FIG. 7 is a composite figure depicting preferential inhibition of the activity of native USP1/UAF1 by C527. HeLa cell extracts were incubated with ubiquitin-aldehyde (Ub-Ald, 5 μM) or C527 at indicated concentrations for 4 h, followed by the addition of 0.5 μM Ub-Vs for 40 min. The reaction was split into two aliquots and subjected to immunoblotting for HA or USP1, respectively.
# The ability of C527 to inhibit the deubiquitinating activity of native USP1 complexes derived from human cells was determined next (FIG. 7). For this purpose, the HA-tagged ubiquitin-VS, an affinity reagent known to covalently modify and trap active DUB enzymes in cell extracts was used. Cell extracts prepared from HeLa cells were pretreated with increasing concentrations of C527 for 4 h, followed by the incubation with Ub-VS for 40 min at 30° C. The enzymatic activity of endogenous DUBs was indicated by the conjugation of Ub-VS, detected as HA-labeling (see FIG. 7, high molecular weight bands). […] Ub-VS conjugation was inhibited by ubiquitin-aldehyde (Ub-Ald), a non-specific inhibitor of DUBs (lane 3).
# T1 sequence (O94782 whole entry G670A/G671A): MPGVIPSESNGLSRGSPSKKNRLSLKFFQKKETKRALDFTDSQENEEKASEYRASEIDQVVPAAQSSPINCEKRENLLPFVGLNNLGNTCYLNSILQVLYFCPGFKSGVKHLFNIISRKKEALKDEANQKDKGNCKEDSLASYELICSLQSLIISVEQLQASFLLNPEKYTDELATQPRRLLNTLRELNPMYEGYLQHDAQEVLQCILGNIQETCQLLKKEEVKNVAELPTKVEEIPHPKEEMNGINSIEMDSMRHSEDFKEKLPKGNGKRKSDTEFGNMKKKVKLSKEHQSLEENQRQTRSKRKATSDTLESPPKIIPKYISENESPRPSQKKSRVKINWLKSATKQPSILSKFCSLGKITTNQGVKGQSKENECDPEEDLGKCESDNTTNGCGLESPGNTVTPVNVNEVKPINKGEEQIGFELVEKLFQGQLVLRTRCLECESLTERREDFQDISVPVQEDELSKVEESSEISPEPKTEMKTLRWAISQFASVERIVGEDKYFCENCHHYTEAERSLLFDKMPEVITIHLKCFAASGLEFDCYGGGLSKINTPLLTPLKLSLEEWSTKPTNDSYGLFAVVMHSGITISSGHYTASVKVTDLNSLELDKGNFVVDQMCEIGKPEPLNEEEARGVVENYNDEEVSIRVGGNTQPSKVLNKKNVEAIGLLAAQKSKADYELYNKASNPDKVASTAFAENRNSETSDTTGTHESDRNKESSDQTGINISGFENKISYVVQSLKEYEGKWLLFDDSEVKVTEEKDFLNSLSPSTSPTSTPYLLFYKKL
# T1 sequence (Q8TAF3 whole entry partner): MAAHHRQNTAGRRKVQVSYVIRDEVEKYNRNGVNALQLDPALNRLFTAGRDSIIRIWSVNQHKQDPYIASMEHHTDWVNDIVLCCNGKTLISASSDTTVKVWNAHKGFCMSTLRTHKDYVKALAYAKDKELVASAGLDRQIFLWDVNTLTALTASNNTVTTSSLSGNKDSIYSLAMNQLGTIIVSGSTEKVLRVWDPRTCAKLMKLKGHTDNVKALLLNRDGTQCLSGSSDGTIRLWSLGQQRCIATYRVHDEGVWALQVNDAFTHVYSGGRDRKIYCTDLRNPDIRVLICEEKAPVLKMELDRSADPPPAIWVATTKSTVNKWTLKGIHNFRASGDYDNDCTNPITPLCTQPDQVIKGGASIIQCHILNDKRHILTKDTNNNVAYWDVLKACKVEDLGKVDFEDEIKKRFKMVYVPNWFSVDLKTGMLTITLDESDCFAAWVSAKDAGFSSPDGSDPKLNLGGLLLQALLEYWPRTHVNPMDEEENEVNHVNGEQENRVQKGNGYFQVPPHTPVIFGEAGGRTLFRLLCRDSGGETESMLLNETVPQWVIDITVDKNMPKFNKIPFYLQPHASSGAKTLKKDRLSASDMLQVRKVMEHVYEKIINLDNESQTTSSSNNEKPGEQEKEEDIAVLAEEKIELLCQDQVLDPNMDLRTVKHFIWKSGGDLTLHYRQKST
identified as inhibitor of USP1 in initial in vitro screening (USP1/UAF1 complex [1]),Compound,fluorescence signal in high throughput screen (USP1/UAF1 complex [3]),further results
inhibitors of USP1,NC1=C(Cl)C(=O)c2ccccc2C1=O [Formula III (933)],–,–
inhibitors of USP1,COc1ccc(CN2C(=O)Cc3ccccc3C2=O)cc1OC [Formula VI (009)],–,IC50 (USP1/UAF1 complex [2]): 2.4 µM
–,CCCCCCCCCCCCCCCC(=O)C1=C(O)C(CO)OC1=O (centres unmarked) [RK-682],substantial low fluorescence signal,–
inhibitors of USP1,O=C1Cc2ccccc2C(=O)N1Cc1ccco1 [Formula V (947)],–,IC50 (USP1/UAF1 complex [2]): 7.5 µM
–,"CO[C@@]12[C@H](COC(N)=O)C3=C(C(=O)C(C)=C(N)C3=O)N1C[C@@H]1N[C@@H]12 [MMC, mitomycin C]",–,"markers of the DNA damage response (FANCD2 monoubiquitination, CHK1 phosphorylation) (HeLa cells): can activate markers of the DNA damage response"
–,CC(C)C[C@H](NC(=O)[C@H](Cc1ccccc1)NC(=O)c1cnccn1)B(O)O [Bortezomib],–,FA/BRCA pathway [4]: inhibited the FA/BRCA pathway
–,Ub-aldehyde [reference compound],–,Ub-VS labeling of endogenous DUBs (HA-labeling) [5]: inhibited
–,"CC[N+](C)(CC)CCC[n+]1c(-c2ccccc2)c2cc(N)ccc2c2ccc(N)cc21.[I-].[I-] [Biomol AP401 (propidium iodide), propidium iodide]",substantial low fluorescence signal,–
–,CC1(C)CCC2=C(O1)c1ccccc1C(=O)C2=O [β-lapachone],substantial low fluorescence signal,–
